Data taken from patent US20220090209A1, “RETROTRANSPOSON BIOMARKERS” (VIB VZW, priority 2019, published 2022).

Columns and labels:
4T1 tumours [1] = test: Immunofluorescence of 4T1 tumours (CD31, pimonidazole, CD8, granzyme B); format: in vivo, mouse; settings: aza versus vehicle
Description: All the experimental procedures were approved by the Institutional Animal Care and Research Advisory Committee of the KU Leuven. 1×10^6 4T1 cells, Hif1b-knockout or wild-type (scramble), were injected orthotopically in the mammary gland of 10 weeks old Balb/c mice, and 1×10^6 CT26 or MC38 cells were injected subcutaneously in 10 weeks old Balb/c or C57BL/6J mice, respectively. When the tumour was palpable (starting volume 100 mm^3), the mice were injected intraperitoneally with 0.8 mg/kg of 5-aza-2′-deoxycytidine (aza) or PBS, 40 mg/kg DC101 antibody (BE0089, InVivoMab) or IgG (BE0060, InVivoMab) or 10 mg/kg anti-PD1 antibody (6E0146, InVivoMab) or IgG antibody (BE0089, InVivoMab) according to the following schedules: DC101 three times per week; anti-PD1 every other day, starting when the tumour size was around 200 mm^3; aza was administered in 2 cycles with 2-days rest in between until the control tumours reached the endpoint. Tumour volumes were monitored every two to three days by a calliper, and mice were culled before tumour volumes exceeded 2,000 mm^3. When over 20% of mice were culled, the experiment was terminated (all arms). In vivo experiments in 4T1, CT26 and MC38 treated with aza or anti-PD1 antibody were performed three times, with at least 6 mice per treatment group in each experiment. […]

4T1 cells = test: Retrotransposon expression in 4T1 cells in vitro; format: cell-based, mouse
Description: (§1) Where indicated, cells were pre-treated with 5-aza-2′-deoxycytidine (aza, 1 μM) for 3 days by adding the correct volume to fresh culture medium while using an equal volume of the carrier (DMSO) as control. This was followed by another day of exposure to aza in hypoxia or normoxia, bringing the total aza exposure time for experiments to 4 days. 2 mM of DMOG (dimethyloxalylglycine, Sigma) was added to culture medium for 24 hours where indicated.
(§2) mRNA capture and stranded library preparation of RNA from MCF7 cells, mouse cell lines and tumours for the purpose of retrotransposon expression analysis was performed using the KAPA Stranded mRNA-Seq Kit (Illumina) according to the provided protocol.
(§3) RNA-seq data were expressed in transcript per million (TPM), 0.01 offset. Expression read counts of retrotransposons are calculated using the RepEnrich tool (https://github.com/nerettilab/RepEnrich), and normalized to the total mappable read depth. The repeat genome of the human reference genome hg19 was download from the RepEnrich website. Human retrotransposon classes (LINE, SINE, LTR) contain 16 families and 779 subfamilies. The repeat genome of the mouse genome mm10 was built using the repeat masker track from the UCSC genome browser. Mouse retrotransposon classes (LINE, SINE, LTR) contain 24 families and 906 subfamilies.

4T1^Hif1b-KO grafts = test: 4T1 Hif1b-KO grafts in mice treated with aza or vehicle; format: in vivo, mouse
Excerpt: (§4) Four gRNAs targeting two different exons in the Hif1b locus of the mouse genome and one non-targeting gRNA (scramble) were designed with the appropriate restriction sites for the receiver plasmid using the online Crispor tool (http://crispor.tefor.net). Oligonucleotides corresponding to gRNAs were synthesized by IDT, and forward and reverse oligonucleotides were annealed in the CutSmart buffer (B7240S, NEB) before cloning into the LentiGuide-Puro plasmid (Plasmid 52963, Addgene). Positive colonies were screened by PCR and validated by Sanger sequencing. LentiGuide-Puro plasmids containing GFP was used as positive control to evaluate the transfection- and transduction-efficacy.
(§5) 4T1 cells were transduced with a lentiviral vector expressing a doxycycline inducible Cas9 nuclease (Cat #CAS11229, Dharmacon) for a tight regulation of the Cas9 expression and gene editing. An infection rate of 30% was used to ensure that the majority of transduced cells harbour a single copy of the vector. These 4T1 cells were always kept in selection medium containing 10 μg/mL of blasticidin (ant-bl-05, Invivogen). When reaching 70% confluency, cells were transduced with one titer of virus. After 24h, the virus was removed and transduction efficacy evaluated based on GFP expression. After 48h, puromycin (P9620, Sigma-Aldrich) 1.5 μg/mL medium was added to the medium. Cells were kept in the presence of blasticidin and puromycin for the remaining experimental procedures. After 3-5 days, Cas9 expression was induced by adding […] (D2975000, Sigma-Aldrich) 0.5 μg/mL medium for 3 days. Cells were kept one day without […] before injection in the mice or further experimental procedures. 4T1 cells transduced with the four gRNAs targeting Hif1b were expanded and proteins were extracted to test the efficacy of the knockout by western blot. […]
(§6) All the experimental procedures were approved by the Institutional Animal Care and Research Advisory Committee of the KU Leuven. […] Tumour volumes were monitored every two to three days by a calliper, and mice were culled before tumour volumes exceeded 2,000 mm^3. […]

4T1^Hif1b-scr grafts = test: 4T1 Hif1b-scr (scramble-control) grafts in mice treated with aza or vehicle; format: in vivo, mouse
Excerpt: as §4, §5, §6

[2] = test system: HIF1β binding peaks in MCF7 cells; test: HIF1β ChIP-seq in hypoxic vehicle- and aza-treated MCF7 cells
[3] = test system: HIF1B-knockout MCF7 cells; test: Retrotransposon expression by mRNA-seq and RepEnrich in HIF1B-knockout MCF7 cells; format: cell-based, human
Description: MCF7, RCC4, SK-MEL-28, A549, 4T1, MC38 and CT26 cell lines were obtained from the American Type Culture Collection and their identity was not further authenticated. These are not listed in the database of commonly misidentified cell lines maintained by ICLAC. MCF7 HIF1B-knockout cells were previously described (Ahmed et al. 2013, Toxicol Sci 138:89-103). MCF7, RCC4, A549, MC38 and 4T1 cells were cultured at 37° C. in Dulbecco's modified Eagle medium (DMEM) with 10% fetal bovine serum (FBS), 5 mL of 100 U/mL Penicillin-Streptomycin (Pen Strep, Life Technologies) and 5 mL of L-Glutamine 200 mM. SK-MEL-28 and CT26 cell lines were cultured at 37° C. in Roswell Park Memorial Institute 1640 Medium (RPMI) with 10% FBS 1% Penicillin-Streptomycin and 1% L-Glutamine.
Where indicated, cells were pre-treated with 5-aza-2′-deoxycytidine (aza, 1 μM) for 3 days by adding the correct volume to fresh culture medium while using an equal volume of the carrier (DMSO) as control. This was followed by another day of exposure to aza in hypoxia or normoxia, bringing the total aza exposure time for experiments to 4 days. […]
RNA-seq data were expressed in transcript per million (TPM), 0.01 offset. Expression read counts of retrotransposons are calculated using the RepEnrich tool (https://github.com/nerettilab/RepEnrich), and normalized to the total mappable read depth. […]

4T1 tumours [4] = test: Growth of orthotopic 4T1 tumours in mice; format: in vivo, mouse; settings: aza versus vehicle, P=3.0×10^-3
Description: (§7) All the experimental procedures were approved by the Institutional Animal Care and Research Advisory Committee of the KU Leuven. 1×10^6 4T1 cells, Hif1b-knockout or wild-type (scramble), were injected orthotopically in the mammary gland of 10 weeks old Balb/c mice, and 1×10^6 CT26 or MC38 cells were injected subcutaneously in 10 weeks old Balb/c or C57BL/6J mice, respectively. When the tumour was palpable (starting volume 100 mm^3), the mice were injected intraperitoneally with 0.8 mg/kg of 5-aza-2′-deoxycytidine (aza) or PBS, 40 mg/kg DC101 antibody (BE0089, InVivoMab) or IgG (BE0060, InVivoMab) or 10 mg/kg anti-PD1 antibody (6E0146, InVivoMab) or IgG antibody (BE0089, InVivoMab) according to the following schedules: DC101 three times per week; anti-PD1 every other day, starting when the tumour size was around 200 mm^3; aza was administered in 2 cycles with 2-days rest in between until the control tumours reached the endpoint. Tumour volumes were monitored every two to three days by a calliper, and mice were culled before tumour volumes exceeded 2,000 mm^3. When over 20% of mice were culled, the experiment was terminated (all arms). In vivo experiments in 4T1, CT26 and MC38 treated with aza or anti-PD1 antibody were performed three times, with at least 6 mice per treatment group in each experiment.

4T1 tumours [5] = test: RNA-seq of 4T1 tumours from treated mice (retrotransposon expression, immune signatures); format: in vivo, mouse
Description: as §2, §3, §7

MCF7 cells [6] = test: Retrotransposon expression by mRNA-seq and RepEnrich in MCF7 cells; format: cell-based, human
Description: as §1, §2, §3

MCF7 cells [7] = test: DNA methylation in aza-treated MCF7 cells (LC-ESI-MS/MS of 5mC, BS-seq); format: cell-based, human
[8] = aza versus PBS, GSVA on immune metagenes

**Q.** For Nc1ncn([C@H]2C[C@H](O)[C@@H](CO)O2)c(=O)n1 [aza, 5-aza-2′-deoxycytidine], which “increase in number of activated, granzyme B-positive T cells” value (4T1 tumours [1]; P<0.05) is on record?
**A.** 2.1 fold

**Q.** What about the T-cell infiltration (4T1 tumours [1]; immunofluorescence of CD8+ T cells) of the same compound?
**A.** unaffected

**Q.** And the retrotransposon expression (4T1 cells)?
**A.** increase

**Q.** What about the “cancer testis antigen expression” value (4T1^Hif1b-KO grafts; aza treatment) of the same compound?
**A.** significant upregulation

**Q.** What about the graft size (4T1^Hif1b-KO grafts; aza versus vehicle, P=0.21) of the same compound?
**A.** failed to show this reduction

**Q.** What about the “number of activated T cells” value (4T1^Hif1b-KO grafts; following aza) of the same compound?
**A.** failed to show such increase

**Q.** What about the “cancer testis antigen expression” value (4T1^Hif1b-scr grafts; aza treatment) of the same compound?
**A.** significant upregulation

**Q.** And the graft size (4T1^Hif1b-scr grafts; aza versus vehicle, P=0.021)?
**A.** significantly reduced size

**Q.** And the “number of activated T cells” value (4T1^Hif1b-scr grafts; following aza)?
**A.** increased

**Q.** And the “new HIF1β binding peaks exposed” value ([2]; HIF1β ChIP-seq, hypoxia 0.5% O2 16 hours)?
**A.** 1,236

**Q.** And the “fraction of aza-specific HIF1β binding peaks in retrotransposons” value ([2]; versus 4.1% in vehicle-treated MCF7 cells)?
**A.** 8.1%

**Q.** And the “enrichment of novel aza-specific HIF1β binding peaks for retrotransposons” value ([2]; versus peaks in vehicle-treated MCF7 cells)?
**A.** 2 fold

**Q.** What about the “retrotransposon overexpression (increase)” value ([3]; aza alone) of the same compound?
**A.** 25%

**Q.** And the “retrotransposon overexpression (increase)” value ([3]; aza in hypoxia)?
**A.** 20%

**Q.** What about the “change in tumour growth” value (4T1 tumours [4]) of the same compound?
**A.** −32%

**Q.** And the “activated T cell and natural killer cell signatures” value (4T1 tumours [5]; [8])?
**A.** upregulated

**Q.** And the “myeloid-derived suppressor cell signatures” value (4T1 tumours [5]; [8])?
**A.** downregulated

**Q.** And the “cell proliferation marker expression” value (4T1 tumours [5]; aza versus vehicle)?
**A.** did not reduce

**Q.** What about the retrotransposon expression (4T1 tumours [5]; in vivo, aza versus vehicle) of the same compound?
**A.** increased

**Q.** And the “increase in expression of the 176 retrotransposon subfamilies bound by HIF1β” value (MCF7 cells [6]; aza alone)?
**A.** 23%

**Q.** And the “expression of the 59 retrotransposons correlated with cytolytic activity” value (MCF7 cells [6]; aza-treated MCF7 cells, P<0.05)?
**A.** upregulated

**Q.** What about the “average increase in retrotransposon expression” value (MCF7 cells [6]; combined aza and chronic (4-day) hypoxia) of the same compound?
**A.** 45%

**Q.** And the “increase in expression of the 176 retrotransposon subfamilies bound by HIF1β” value (MCF7 cells [6]; combined aza and hypoxia (24 hours, 0.5% O2))?
**A.** 27%

**Q.** What about the “overall reduction of DNA methylation” value (MCF7 cells [7]; MCF7 cells pharmacologically demethylated with aza (1 μM, 4 days)) of the same compound?
**A.** 70.5±5.5%

**Q.** And the “reduced methylation at new HIF1β binding sites in aza-treated cells” value (MCF7 cells [7]; aza-treated versus untreated MCF7 cells)?
**A.** 2.5 fold
